According to the NIST ThermoML archive (doi:10.1021/acs.jced.8b00213):

Legend:
[1] = refractive index (Na D-line) (dimensionless); xn = mol fraction of the nth substance listed; conditions: 100 kPa, Liquid, Standard Abbe refractometry, x1 = 0.25
[2] = xn = mol fraction of the nth substance listed; conditions: 100 kPa, Liquid, x1 = 0.25; for electrical conductivity: Alternating current cell with electrodes; for viscosity: Falling or rolling sphere viscometry; for speed of sound: Single path-length method; for mass density: Vibrating tube method

CCCC[N+](CCCC)(CCCC)Cc1ccccc1.[Cl-] [benzyltributylammonium chloride] + OCCOCCO
Conditions | electrical conductivity, [2] [S/m] | mass density, [2] [kg/m3] | refractive index, [1] | speed of sound, [2] [m/s] | viscosity, [2] [mPa·s]
283.15 K | 0.019 | 1063.94 | 1.4957 | 1706.8 | 961.86
288.15 K | 0.025 | 1060.76 | 1.4945 | 1689.5 | 644.25
293.15 K | 0.032 | 1057.65 | 1.4929 | 1673.2 | 433.54
298.15 K | 0.04 | 1054.57 | 1.4909 | 1658.1 | 310.37
303.15 K | 0.052 | 1051.5 | 1.4893 | 1643.5 | 224.9
308.15 K | 0.066 | 1048.41 | 1.4878 | 1629.5 | 168.37
313.15 K | 0.081 | 1045.31 | 1.486 | 1615.6 | 125.21
318.15 K | 0.099 | 1042.22 | 1.4849 | 1602 | 96.78
323.15 K | 0.115 | 1039.12 | 1.4836 | 1588.6 | 76.23
328.15 K | 0.13 | 1036.03 | 1.4815 | 1575.3 | 62.63
333.15 K | 0.154 | 1032.94 | 1.4804 | 1562.1 | 50.43
338.15 K | 0.178 | 1029.85 | 1.4786 | 1549.2 | 40.68
343.15 K | 0.207 | 1026.78 | 1.4776 | 1536.7 | 32.76

C[N+](C)(C)Cc1ccccc1.[Cl-] [trimethylbenzylammonium chloride] + OCCOCCOCCO
Conditions | electrical conductivity, [2] [S/m] | mass density, [2] [kg/m3] | refractive index, [1] | speed of sound, [2] [m/s] | viscosity, [2] [mPa·s]
283.15 K | 0.048 | 1127.45 | 1.4923 | 1776.2 | 620.1
288.15 K | 0.063 | 1124.08 | 1.4908 | 1761 | 470.8
293.15 K | 0.081 | 1120.7 | 1.4894 | 1746.2 | 370.5
298.15 K | 0.101 | 1117.31 | 1.488 | 1731.4 | 308.8
303.15 K | 0.124 | 1113.93 | 1.4865 | 1716.9 | 214.3
308.15 K | 0.152 | 1110.57 | 1.4849 | 1702.8 | 155.7
313.15 K | 0.187 | 1107.21 | 1.4836 | 1688.5 | 115.6
318.15 K | 0.226 | 1103.87 | 1.4821 | 1674.6 | 87.8
323.15 K | 0.278 | 1100.54 | 1.4807 | 1660.8 | 68.5
328.15 K | 0.325 | 1097.22 | 1.4792 | 1647.2 | 54.9
333.15 K | 0.377 | 1093.9 | 1.4778 | 1633.6 | 43.5
338.15 K | 0.44 | 1090.59 | 1.4763 | 1620.1 | 34.3
343.15 K | 0.506 | 1087.29 | 1.4749 | 1606.6 | 27.4

CCCC[N+](CCCC)(CCCC)Cc1ccccc1.[Cl-] [benzyltributylammonium chloride] + OCC(O)CO
Conditions | electrical conductivity, [2] [S/m] | mass density, [2] [kg/m3] | refractive index, [1] | speed of sound, [2] [m/s] | viscosity, [2] [mPa·s]
283.15 K | 0.003 | 1112.02 | 1.5095 | 1908 | –
288.15 K | 0.005 | 1108.9 | 1.5079 | 1866.4 | –
293.15 K | 0.007 | 1105.78 | 1.5065 | 1833 | –
298.15 K | 0.009 | 1102.66 | 1.5051 | 1805.3 | 2328.1
303.15 K | 0.013 | 1099.54 | 1.5036 | 1782 | 1709.2
308.15 K | 0.019 | 1096.41 | 1.5021 | 1761.7 | 1112.1
313.15 K | 0.025 | 1093.28 | 1.5006 | 1743.5 | 740.9
318.15 K | 0.038 | 1090.07 | 1.4992 | 1726.8 | 497.7
323.15 K | 0.047 | 1086.95 | 1.4977 | 1711.2 | 346.1
328.15 K | 0.065 | 1083.85 | 1.4962 | 1696 | 254.6
333.15 K | 0.086 | 1080.72 | 1.4948 | 1681.5 | 185.3
338.15 K | 0.109 | 1077.58 | 1.4933 | 1667.3 | 138.1
343.15 K | 0.138 | 1074.43 | 1.4917 | 1653.9 | 105

C[N+](C)(C)Cc1ccccc1.[Cl-] [trimethylbenzylammonium chloride] + OCCOCCO
Conditions | electrical conductivity, [2] [S/m] | mass density, [2] [kg/m3] | refractive index, [1] | speed of sound, [2] [m/s] | viscosity, [2] [mPa·s]
283.15 K | 0.088 | 1120.06 | 1.4954 | 1782.6 | 263.4
288.15 K | 0.109 | 1116.91 | 1.494 | 1769 | 185.4
293.15 K | 0.132 | 1113.75 | 1.4925 | 1755.8 | 134.1
298.15 K | 0.165 | 1110.6 | 1.4911 | 1742.9 | 98.6
303.15 K | 0.201 | 1107.46 | 1.4897 | 1730.2 | 74.8
308.15 K | 0.254 | 1104.33 | 1.4884 | 1717.7 | 57.9
313.15 K | 0.311 | 1101.21 | 1.4869 | 1705.3 | 44.4
318.15 K | 0.356 | 1098.09 | 1.4855 | 1693 | 34.8
323.15 K | 0.398 | 1094.99 | 1.4841 | 1680.8 | 27.8
328.15 K | 0.474 | 1091.89 | 1.4826 | 1668.7 | 23.2
333.15 K | 0.539 | 1088.79 | 1.4813 | 1656.6 | 18.7
338.15 K | 0.611 | 1085.7 | 1.4798 | 1644.7 | 16
343.15 K | 0.681 | 1082.63 | 1.4784 | 1633.1 | 14.2
